In ChEMBL document CHEMBL1201862, “PubChem BioAssay data set” (2004):
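Results reflect a 48-hour exposure of cells in 96-well plates to compound at five concentrations. GI50 marks 50% less growth.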 Calls of active or inactive are those of the source. No stated cut-off is given here; in the data, active = GI50 up to about 1.1 µM and inactive = higher.

Key:
Assay in all cases: inhibition of tumour cell growth, NCI panel, 48 h
K562 = test system: K562
SK-OV-3 = test system: SK-OV-3
MDA-MB-435 = test system: MDA-MB-435
786-0 = test system: 786-0
A549 = test system: A549
SF-268 = test system: SF-268
Malme-3M = test system: Malme-3M
UO-31 = test system: UO-31
SF-539 = test system: SF-539
HOP-62 = test system: HOP-62
DU-145 = test system: DU-145
HT-29 = test system: HT-29
CAKI-1 = test system: CAKI-1
COLO 205 = test system: COLO 205
SK-MEL-28 = test system: SK-MEL-28
LOX IMVI = test system: LOX IMVI
RPMI-8226 = test system: RPMI-8226
T47D = test system: T47D
U-251 = test system: U-251
OVCAR-8 = test system: OVCAR-8
MOLT-4 = test system: MOLT-4
OVCAR-5 = test system: OVCAR-5
PC-3 = test system: PC-3
SNB-75 = test system: SNB-75
OVCAR-3 = test system: OVCAR-3
IGROV-1 = test system: IGROV-1
UACC-257 = test system: UACC-257
CCRF-CEM = test system: CCRF-CEM
HCT-15 = test system: HCT-15
NCI-H460 = test system: NCI-H460
NCI-H522 = test system: NCI-H522
OVCAR-4 = test system: OVCAR-4
HCC 2998 = test system: HCC 2998
UACC-62 = test system: UACC-62
SW-620 = test system: SW-620
SK-MEL-5 = test system: SK-MEL-5
EKVX = test system: EKVX
TK-10 = test system: TK-10
M14 = test system: M14
MDA-MB-231 = test system: MDA-MB-231
SN12C = test system: SN12C
NCI/ADR-RES = test system: NCI/ADR-RES
BT-549 = test system: BT-549
RXF 393 = test system: RXF 393
A498 = test system: A498
SK-MEL-2 = test system: SK-MEL-2
NCI-H226 = test system: NCI-H226
Hs-578T = test system: Hs-578T
MDA-N = test system: MDA-N
MCF7 = test system: MCF7
NCI-H23 = test system: NCI-H23
HCT-116 = test system: HCT-116
SNB-19 = test system: SNB-19
KM12 = test system: KM12
ACHN = test system: ACHN
SR = test system: SR
SF-295 = test system: SF-295
HOP-92 = test system: HOP-92
HL-60 = test system: HL-60

NC(=O)NNC(=O)c1nc[nH]c1[N+](=O)[O-]
GI50 (K562): > 100 µM (inactive)
GI50 (SK-OV-3): > 100 µM (inactive)
GI50 (MDA-MB-435): > 100 µM (inactive)
GI50 (786-0): > 100 µM (inactive)
GI50 (A549): > 100 µM (inactive)
GI50 (SF-268): > 100 µM (inactive)
GI50 (Malme-3M): > 100 µM (inactive)
GI50 (UO-31): > 100 µM (inactive)
GI50 (SF-539): > 100 µM (inactive)
GI50 (HOP-62): > 100 µM (inactive)
GI50 (DU-145): > 100 µM (inactive)
GI50 (HT-29): > 100 µM (inactive)
GI50 (CAKI-1): > 100 µM (inactive)
GI50 (COLO 205): > 100 µM (inactive)
GI50 (SK-MEL-28): > 100 µM (inactive)
GI50 (LOX IMVI): > 100 µM (inactive)
GI50 (RPMI-8226): > 100 µM (inactive)
GI50 (T47D): > 100 µM (inactive)
GI50 (U-251): > 100 µM (inactive)
GI50 (OVCAR-8): > 100 µM (inactive)
GI50 (MOLT-4): > 100 µM (inactive)
GI50 (OVCAR-5): > 100 µM (inactive)
GI50 (PC-3): > 100 µM (inactive)
GI50 (SNB-75): > 100 µM (inactive)
GI50 (OVCAR-3): > 100 µM (inactive)
GI50 (IGROV-1): > 100 µM (inactive)
GI50 (UACC-257): > 100 µM (inactive)
GI50 (CCRF-CEM): > 100 µM (inactive)
GI50 (HCT-15): > 100 µM
GI50 (NCI-H460): > 100 µM (inactive)
GI50 (NCI-H522): > 100 µM (inactive)
GI50 (OVCAR-4): > 100 µM (inactive)
GI50 (HCC 2998): > 100 µM (inactive)
GI50 (UACC-62): > 100 µM (inactive)
GI50 (SW-620): > 100 µM (inactive)
GI50 (SK-MEL-5): > 100 µM (inactive)
GI50 (EKVX): > 100 µM (inactive)
GI50 (TK-10): > 100 µM (inactive)
GI50 (M14): > 100 µM (inactive)
GI50 (MDA-MB-231): > 100 µM (inactive)
GI50 (SN12C): > 100 µM (inactive)
GI50 (NCI/ADR-RES): > 100 µM (inactive)
GI50 (BT-549): > 100 µM (inactive)
GI50 (RXF 393): > 100 µM (inactive)
GI50 (A498): > 100 µM (inactive)
GI50 (SK-MEL-2): > 100 µM (inactive)
GI50 (NCI-H226): > 100 µM (inactive)
GI50 (Hs-578T): > 100 µM (inactive)
GI50 (MDA-N): > 100 µM (inactive)
GI50 (MCF7): > 100 µM (inactive)
GI50 (NCI-H23): > 100 µM (inactive)
GI50 (HCT-116): > 100 µM (inactive)

O=C1C(Cl)=C(NCCCN2CCOCC2)C(=O)c2c(O)ccc(O)c21
GI50 (K562): 2.62 µM (inactive)
GI50 (SK-OV-3): 7.89 µM (inactive)
GI50 (MDA-MB-435): 1.85 µM (inactive)
GI50 (SNB-19): 1.66 µM (inactive)
GI50 (786-0): 2.29 µM (inactive)
GI50 (A549): 3.9 µM (inactive)
GI50 (SF-268): 2.84 µM (inactive)
GI50 (Malme-3M): 1.91 µM (inactive)
GI50 (UO-31): 1.64 µM (inactive)
GI50 (SF-539): 1.68 µM (inactive)
GI50 (HOP-62): 1.96 µM (inactive)
GI50 (DU-145): 1.6 µM (inactive)
GI50 (HT-29): 2.75 µM (inactive)
GI50 (SK-MEL-28): 1.77 µM (inactive)
GI50 (LOX IMVI): 1.8 µM (inactive)
GI50 (RPMI-8226): 0.0598 µM (active)
GI50 (KM12): 1.85 µM (inactive)
GI50 (T47D): 4.89 µM (inactive)
GI50 (U-251): 2.19 µM (inactive)
GI50 (OVCAR-8): 3.99 µM (inactive)
GI50 (MOLT-4): 1 µM (active)
GI50 (OVCAR-5): 1.71 µM (inactive)
GI50 (PC-3): 2.96 µM (inactive)
GI50 (SNB-75): 2.38 µM (inactive)
GI50 (ACHN): 9.18 µM (inactive)
GI50 (OVCAR-3): 1.61 µM (inactive)
GI50 (IGROV-1): 1.9 µM (inactive)
GI50 (UACC-257): 2.35 µM (inactive)
GI50 (CCRF-CEM): 1 µM (active)
GI50 (HCT-15): 1.26 µM
GI50 (NCI-H460): 3.13 µM (inactive)
GI50 (SR): 2.58 µM (inactive)
GI50 (HCC 2998): 2.2 µM (inactive)
GI50 (UACC-62): 1.77 µM (inactive)
GI50 (SW-620): 1.95 µM (inactive)
GI50 (SK-MEL-5): 1.1 µM (active)
GI50 (EKVX): 1 µM (active)
GI50 (SF-295): 2.53 µM (inactive)
GI50 (TK-10): 6.28 µM (inactive)
GI50 (M14): 1.96 µM (inactive)
GI50 (MDA-MB-231): 3.01 µM (inactive)
GI50 (SN12C): 2.01 µM (inactive)
GI50 (BT-549): 1.64 µM (inactive)
GI50 (RXF 393): 1.75 µM (inactive)
GI50 (A498): 10 µM (inactive)
GI50 (SK-MEL-2): 0.228 µM (active)
GI50 (NCI-H226): 3.54 µM (inactive)
GI50 (Hs-578T): 1.27 µM (inactive)
GI50 (MDA-N): 1.72 µM (inactive)
GI50 (MCF7): 1.55 µM (inactive)
GI50 (NCI-H23): 1.75 µM (inactive)
GI50 (HCT-116): 1.59 µM (inactive)

NC(=S)N1N=C(c2ccc3c(c2)CCC3)CC1c1ccccc1 (configuration not stated)
GI50 (K562): 13.1 µM (inactive)
GI50 (SK-OV-3): 28.6 µM (inactive)
GI50 (MDA-MB-435): 20.2 µM (inactive)
GI50 (SNB-19): 34.6 µM (inactive)
GI50 (786-0): 22.6 µM (inactive)
GI50 (A549): 23.4 µM (inactive)
GI50 (SF-268): 30.8 µM (inactive)
GI50 (Malme-3M): 22.6 µM (inactive)
GI50 (UO-31): 29.9 µM (inactive)
GI50 (SF-539): 18.3 µM (inactive)
GI50 (HOP-62): 24.9 µM (inactive)
GI50 (DU-145): 23 µM (inactive)
GI50 (HT-29): 16.4 µM (inactive)
GI50 (CAKI-1): 21.3 µM (inactive)
GI50 (COLO 205): 18.3 µM (inactive)
GI50 (SK-MEL-28): 41.5 µM (inactive)
GI50 (LOX IMVI): 31.5 µM (inactive)
GI50 (RPMI-8226): 13.6 µM (inactive)
GI50 (KM12): 11.4 µM (inactive)
GI50 (T47D): 1.64 µM (inactive)
GI50 (HOP-92): 23.4 µM (inactive)
GI50 (U-251): 20.4 µM (inactive)
GI50 (OVCAR-8): 28.3 µM (inactive)
GI50 (MOLT-4): 8.15 µM (inactive)
GI50 (OVCAR-5): 32.2 µM (inactive)
GI50 (PC-3): 19.6 µM (inactive)
GI50 (SNB-75): 18.1 µM (inactive)
GI50 (ACHN): 27.9 µM (inactive)
GI50 (OVCAR-3): 17.4 µM (inactive)
GI50 (IGROV-1): 15 µM (inactive)
GI50 (UACC-257): 21.4 µM (inactive)
GI50 (CCRF-CEM): 23.1 µM (inactive)
GI50 (HCT-15): 13.8 µM
GI50 (NCI-H460): 22.2 µM (inactive)
GI50 (NCI-H522): 6.27 µM (inactive)
GI50 (OVCAR-4): 7.18 µM (inactive)
GI50 (SR): 25.3 µM (inactive)
GI50 (HCC 2998): 16.1 µM (inactive)
GI50 (UACC-62): 17.6 µM (inactive)
GI50 (SW-620): 33.8 µM (inactive)
GI50 (SK-MEL-5): 12.8 µM (inactive)
GI50 (EKVX): 5.08 µM (inactive)
GI50 (SF-295): 15.7 µM (inactive)
GI50 (TK-10): 18.1 µM (inactive)
GI50 (M14): 26.7 µM (inactive)
GI50 (HL-60): 7.93 µM (inactive)
GI50 (SN12C): 24.7 µM (inactive)
GI50 (NCI/ADR-RES): 15.6 µM (inactive)
GI50 (BT-549): 22.5 µM (inactive)
GI50 (RXF 393): 2.88 µM (inactive)
GI50 (A498): 12.5 µM (inactive)
GI50 (SK-MEL-2): 13.7 µM (inactive)
GI50 (NCI-H226): 34.2 µM (inactive)
GI50 (Hs-578T): 6.12 µM (inactive)
GI50 (MDA-N): 22.9 µM (inactive)
GI50 (MCF7): 8.45 µM (inactive)
GI50 (NCI-H23): 25.1 µM (inactive)
GI50 (HCT-116): 22 µM (inactive)
